Measurements from US8933079B2, “Pyridone and pyridazinone derivatives as anti-obesity agents” (Boehringer Ingelheim International GmbH, priority 2012, dated 2015).

Target: hMCH-1R (Homo sapiens (Human), UniProt Q99705)
Assay: MCH-1 receptor binding test (125I-MCH binding to hMCH-1R transfected cell membranes)
Settings: competition with 100 pM 125I-MCH, membranes of CHO/Galpha16 cells stably transfected with hMCH-1R
Description: Res Commun. […] After the incubation the reaction is filtered using a cell harvester through 0.5% PEI treated fibreglass filters (GF/B, Unifilter Packard). The membrane-bound radioactivity retained on the filter is then determined after the addition of scintillator substance (Packard Microscint 20) in a measuring device (TopCount of Packard). […] The analysis of the concentration binding curve is carried out on the assumption of one receptor binding site.

Chain of hMCH-1R (Q99705 whole entry): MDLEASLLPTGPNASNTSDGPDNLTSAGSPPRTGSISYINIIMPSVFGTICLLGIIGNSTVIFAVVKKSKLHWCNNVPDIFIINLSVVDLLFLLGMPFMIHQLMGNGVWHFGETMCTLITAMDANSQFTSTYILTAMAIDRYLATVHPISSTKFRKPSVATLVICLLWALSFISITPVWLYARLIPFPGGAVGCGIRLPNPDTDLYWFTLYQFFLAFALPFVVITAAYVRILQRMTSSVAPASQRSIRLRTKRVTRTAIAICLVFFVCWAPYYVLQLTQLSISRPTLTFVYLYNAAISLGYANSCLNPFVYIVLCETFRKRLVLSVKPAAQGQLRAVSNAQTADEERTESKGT

Row | Structure (SMILES) | IC50 [nM]
1 | Cc1cc(CN(C)C(C)C)ccc1C(=O)Cn1ccc(OCc2ccc(Br)cn2)cc1=O [Example 4.17, 4-(5-Bromo-pyridin-2-ylmethoxy)-1-(2-{4-[(isopropyl-methyl-amino)-methyl]-2-methyl-phenyl}-2-oxo-ethyl)-1H-pyridin-2-one] | 18
2 | CCNCc1ccc(C(=O)Cn2ccc(OCc3ccc(F)cn3)cc2=O)c(C)c1 [Example 2.6] | 134
3 | CNCc1ccc(C(=O)Cn2ccc(OCc3ccc(Cl)cn3)cc2=O)c(C)c1 [Example 3.10] | 37
4 | Cc1cc(CN2CCC[C@H](O)C2)ccc1C(=O)Cn1ccc(OCc2ccccc2)cc1=O [Example 1.13, (S)-4-Benzyloxy-1-{2-[4-(3-hydroxy-piperidin-1-ylmethyl)-2-methyl-phenyl]-2-oxo-ethyl}-1H-pyridin-2-one] | 29
5 | Cc1cc(CN2CCC(CO)CC2)ccc1C(=O)Cn1ccc(OCc2ccccc2)cc1=O [Example 1.6, 4-Benzyloxy-1-{2-[4-(4-hydroxymethyl-piperidin-1-ylmethyl)-2-methyl-phenyl]-2-oxo-ethyl}-1H-pyridin-2-one] | 24
6 | COc1ccc(COc2ccn(CC(=O)c3ccc(CN4CCC(O)CC4)cc3C)c(=O)c2)nc1 [Example 11.1, 1-{2-[4-(4-Hydroxy-piperidin-1-ylmethyl)-2-methyl-phenyl]-2-oxo-ethyl}-4-(5-methoxy-pyridin-2-ylmethoxy)-1H-pyridin-2-one] | 53
7 | Cc1cc(CN2CCC(O)CC2)ccc1C(=O)Cn1ccc(OCc2ccc(Br)cn2)cc1=O [Example 4.2, 4-(5-Bromo-pyridin-2-ylmethoxy)-1-{2-[4-(4-hydroxy-piperidin-1-ylmethyl)-2-methyl-phenyl]-2-oxo-ethyl}-1H-pyridin-2-one] | 16
8 | Cc1cc(CN2CCC[C@H](O)C2)ccc1C(=O)Cn1ncc(OCc2ccccc2)cc1=O [Example 5.13, (S)-5-Benzyloxy-2-{2-[4-(3-hydroxy-piperidin-1-ylmethyl)-2-methyl-phenyl]-2-oxo-ethyl}-2H-pyridazin-3-one] | 13
9 | Cc1cc(CN2CC[C@@H](O)C2)ccc1C(=O)Cn1ccc(OCc2ccccc2)cc1=O [Example 1.14] | 53
10 | Cc1cc(CN2CC[C@H](O)C2)ccc1C(=O)Cn1ccc(OCc2ccc(F)cn2)cc1=O [Example 2.4] | 70
11 | Cc1cc(CN2CCNCC2)ccc1C(=O)Cn1ncc(OCc2ccc(Cl)cn2)cc1=O [Example 7.17, 5-(5-Chloro-pyridin-2-ylmethoxy)-2-[2-(2-methyl-4-piperazin-1-ylmethyl-phenyl)-2-oxo-ethyl]-2H-pyridazin-3-one] | 83
12 | Cc1cc(CN2CCC[C@@H](O)C2)ccc1C(=O)Cn1ncc(OCc2ccc(Br)cn2)cc1=O [Example 8.6, (R)-5-(5-Bromo-pyridin-2-ylmethoxy)-2-{2-[4-(3-hydroxy-piperidin-1-ylmethyl)-2-methyl-phenyl]-2-oxo-ethyl}-2H-pyridazin-3-one] | 21
13 | CCN1CCN(Cc2ccc(C(=O)Cn3ncc(OCc4ccc(Cl)cn4)cc3=O)c(C)c2)CC1 [Example 7.2] | 71
14 | Cc1cc(CN2CCC[C@H]2CO)ccc1C(=O)Cn1ccc(OCc2ccc(Br)cn2)cc1=O [Example 4.5, (S)-4-(5-Bromo-pyridin-2-ylmethoxy)-1-{2-[4-(2-hydroxymethyl-pyrrolidin-1-ylmethyl)-2-methyl-phenyl]-2-oxo-ethyl}-1H-pyridin-2-one] | 13
15 | Cc1cc(CN2CCC[C@@H](O)C2)ccc1C(=O)Cn1ccc(OCc2ccc(Cl)cn2)cc1=O [Example 3.13, (R)-4-(5-Chloro-pyridin-2-ylmethoxy)-1-{2-[4-(3-hydroxy-piperidin-1-ylmethyl)-2-methyl-pheny]-2-oxo-ethyl}-1H-pyridin-2-one] | 34
16 | Cc1cc(CN2CCCC[C@@H]2CO)ccc1C(=O)Cn1ncc(OCc2ccccc2)cc1=O [Example 5.12, (R)-5-Benzyloxy-2-{2-[4-(2-hydroxymethyl-piperidin-1-ylmethyl)-2-methyl-phenyl]-2-oxo-ethyl}-2H-pyridazin-3-one] | 13
17 | CNCc1ccc(C(=O)Cn2ncc(OCc3ccc(OC)cn3)cc2=O)c(C)c1 [Example 9.4, 5-(5-Methoxy-pyridin-2-ylmethoxy)-2-[2-(2-methyl-4-methylaminomethyl-phenyl)-2-oxo-ethyl]-2H-pyridazin-3-one] | 20
18 | Cc1cc(CN2CCC(O)CC2)ccc1C(=O)Cn1ncc(OCc2ccc(Br)cn2)cc1=O [Example 8.9, 5-(5-Bromo-pyridin-2-ylmethoxy)-2-{2-[4-(4-hydroxy-piperidin-1-ylmethyl)-2-methyl-phenyl]-2-oxo-ethyl}-2H-pyridazin-3-one] | 18
19 | CCN1CCN(Cc2ccc(C(=O)Cn3ccc(OCc4ccc(Br)cn4)cc3=O)c(C)c2)CC1 [Example 4.10] | 53
20 | Cc1cc(CNC(C)C)ccc1C(=O)Cn1ccc(OCc2ccc(Br)cn2)cc1=O [Example 4.15, 4-(5-Bromo-pyridin-2-ylmethoxy)-1-{2-[4-(isopropylamino-methyl)-2-methyl-phenyl]-2-oxo-ethyl}-1H-pyridin-2-one] | 18

Row | Structure (SMILES) | IC50 [nM]
21 | CNCc1ccc(C(=O)Cn2ncc(OCc3ccc(Cl)cn3)cc2=O)c(C)c1 [Example 7.6, 5-(5-Chloro-pyridin-2-ylmethoxy)-2-[2-(2-methyl-4-methylaminomethyl-phenyl)-2-oxo-ethyl]-2H-pyridazin-3-one] | 28
22 | Cc1cc(CN2CCC[C@H]2CO)ccc1C(=O)Cn1ncc(OCc2ccccc2)cc1=O [Example 5.3, (S)-5-Benzyloxy-2-{2-[4-(2-hydroxymethyl-pyrrolidin-1-ylmethyl)-2-methyl-phenyl]-2-oxo-ethyl}-2H-pyridazin-3-one] | 11
23 | COc1ccc(COc2ccn(CC(=O)c3ccc(CN(C)C)cc3C)c(=O)c2)nc1 [Example 11.2] | 57
24 | Cc1cc(CN2CC[C@@H](O)C2)ccc1C(=O)Cn1ncc(OCc2ccc(Cl)cn2)cc1=O [Example 7.9] | 32
25 | Cc1cc(CN2CCC[C@H](O)C2)ccc1C(=O)Cn1ncc(OCc2ccc(Cl)cn2)cc1=O [Example 7.10] | 25
26 | CCN(C)Cc1ccc(C(=O)Cn2ccc(OCc3ccc(Br)cn3)cc2=O)c(C)c1 [Example 4.18, 4-(5-Bromo-pyridin-2-ylmethoxy)-1-(2-{4-[(ethyl-methyl-amino)-methyl]-2-methyl-phenyl}-2-oxo-ethyl)-1H-pyridin-2-one] | 19
27 | Cc1cc(CN2CCCC2)ccc1C(=O)Cn1ncc(OCc2ccc(F)cn2)cc1=O [Example 6.1, 5-(5-Fluoro-pyridin-2-ylmethoxy)-2-[2-(2-methyl-4-pyrrolidin-1-ylmethyl-phenyl)-2-oxo-ethyl]-2H-pyridazin-3-one] | 38
28 | Cc1cc(CN2CC[C@@H](O)C2)ccc1C(=O)Cn1ncc(OCc2ccccc2)cc1=O [Example 5.4, (R)-5-Benzyloxy-2-{2-[4-(3-hydroxy-pyrrolidin-1-ylmethyl)-2-methyl-phenyl]-2-oxo-ethyl}-2H-pyridazin-3-one] | 12
29 | COc1ccc(COc2cnn(CC(=O)c3ccc(C(C)N(C)C)cc3C)c(=O)c2)nc1 (stereo not shown) [Example 10.1, 2-{2-[4-(1-Dimethylamino-ethyl)-2-methyl-phenyl]-2-oxo-ethyl}-5-(5-methoxy-pyridin-2-ylmethoxy)-2H-pyridazin-3-one] | 20
30 | Cc1cc(CN2CCC[C@H]2CO)ccc1C(=O)Cn1ncc(OCc2ccc(Br)cn2)cc1=O [Example 8.11] | 21
31 | Cc1cc(CN2CCC(O)CC2)ccc1C(=O)Cn1ncc(OCc2ccccc2)cc1=O [Example 5.8] | 15
32 | Cc1cc(CN2CC[C@@H](O)C2)ccc1C(=O)Cn1ccc(OCc2ccc(Br)cn2)cc1=O [Example 4.9, (R)-4-(5-Bromo-pyridin-2-ylmethoxy)-1-{2-[4-(3-hydroxy-pyrrolidin-1-ylmethyl)-2-methyl-phenyl]-2-oxo-ethyl}-1H-pyridin-2-one] | 20
33 | Cc1cc(CN2CC(O)C2)ccc1C(=O)Cn1ncc(OCc2ccc(Cl)cn2)cc1=O [Example 7.3] | 27
34 | Cc1cc(CN2CCC(C)(O)C2)ccc1C(=O)Cn1ccc(OCc2ccccc2)cc1=O (stereo not shown) [Example 1.10, 4-Benzyloxy-1-{2-[4-(3-hydroxy-3-methyl-pyrrolidin-1-ylmethyl)-2-methyl-phenyl]-2-oxo-ethyl}-1H-pyridin-2-one] | 26
35 | Cc1cc(CN2CCC[C@@H](O)C2)ccc1C(=O)Cn1ccc(OCc2ccc(Br)cn2)cc1=O [Example 4.12, (R)-4-(5-Bromo-pyridin-2-ylmethoxy)-1-{2-[4-(3-hydroxy-piperidin-1-ylmethyl)-2-methyl-phenyl]-2-oxo-ethyl}-1H-pyridin-2-one] | 23
36 | Cc1cc(CN2CCCC2)ccc1C(=O)Cn1ncc(OCc2ccc(Cl)cn2)cc1=O [Example 7.15, 5-(5-Chloro-pyridin-2-ylmethoxy)-2-[2-(2-methyl-4-pyrrolidin-1-ylmethyl-phenyl)-2-oxo-ethyl]-2H-pyridazin-3-one] | 19
37 | Cc1cc(CN2CCC(CO)CC2)ccc1C(=O)Cn1ccc(OCc2ccc(Br)cn2)cc1=O [Example 4.3, 4-(5-Bromo-pyridin-2-ylmethoxy)-1-{2-[4-(4-hydroxymethyl-piperidin-1-ylmethyl)-2-methyl-phenyl]-2-oxo-ethyl}-1H-pyridin-2-one] | 13
38 | Cc1cc(CN2CCC[C@H]2CO)ccc1C(=O)Cn1ccc(OCc2ccccc2)cc1=O [Example 1.17, (S)-4-Benzyloxy-1-{2-[4-(2-hydroxymethyl-pyrrolidin-1-ylmethyl)-2-methyl-phenyl]-2-oxo-ethyl}-1H-pyridin-2-one] | 26
39 | Cc1cc(CN2CCCCC2)ccc1C(=O)Cn1ncc(OCc2ccc(F)cn2)cc1=O [Example 6.2, 5-(5-Fluoro-pyridin-2-ylmethoxy)-2-[2-(2-methyl-4-piperidin-1-ylmethyl-phenyl)-2-oxo-ethyl]-2H-pyridazin-3-one] | 35
40 | CCNCc1ccc(C(=O)Cn2ncc(OCc3ccc(F)cn3)cc2=O)c(C)c1 [Example 6.3] | 59
